Earlier results in patent US7745665B2, “Substituted phenethylamines” (Auspex Pharmaceuticals, Inc., priority 2007, dated 2010).

Settings: oxidation of the methylene group alpha to the nitrogen; humans

hydroxymandelic acid metabolite as share of the recovered mass balance: more than 50%
Structure (SMILES): CNC[C@H](O)c1cccc(O)c1 [Phenylephrine, (R)-3-(1-hydroxy-2-methylamino-ethyl)-phenol]
